Measurements as given in EP0852142A1, “Diamines in the treatment of arrhythmia” (SMITHKLINE BEECHAM LABORATOIRES PHARMACEUTIQUES, priority 1992, dated 1993).
Values joined by “and” are separate entries in the source; they are usually repeats but may differ in a detail not shown here. Identical values can stand only once.

What was measured:
[1] = system: Ischemia and reperfusion-induced arrhythmias; assay: Ischemia and reperfusion-induced arrhythmias (ventricular fibrillation) in anesthetized dogs; assay type: in vivo, dog
Method: Surgical preparation. Dogs were anesthetized using 30 mg/kg i.v. sodium pentobarbital. […] A catheter was inserted into the right femoral artery to measure the systemic arterial pressure (Statham P23 ID, GOULD). A 5F Millar microtip catheter pressure transducer was inserted into the left carotid artery and advanced into the left ventricular lumen to measure the left ventricular pressure (LVP) and its first positive derivative dP/dt. Peripheral venous and arterial catheters were placed for drug administration and blood samples collection, respectively. Electrocardiographic variables were measured via a standard lead II ECG. […] After a left thoracotomy through the fifth intercostal space, the heart was suspended in a pericardial cradle. The left circumflex coronary artery (LCX) was isolated close to its origin and a silk suture was placed around it for later occlusion.
Experimental time course. After placement of the silk strand the animal was allowed to stabilize for at least 10 minutes. Arterial blood gases were determined (ABL500, Radiometer), and ventilation was adjusted to maintain these parameters within the normal range. Then, intravenous administration of the drug was performed in 10 minutes. After the drug administration, hemodynamic and ECG variables were again measured and the LCX was occluded for 45 minutes by placing a microclamp. Reperfusion performed by removing the clamp was continued for 5 hours.
Measurements. Ventricular arrhythmias were analyzed during the preischemic period, during ischemia and during the first hour of reperfusion. Ventricular premature beats (VPBs) were defined as identifiable premature QRS complexes and salvos as more than 2 consecutive VPBs. Ventricular tachycardia was defined as 4 or more consecutive VPBs. Ventricular fibrillation (VF) was diagnosed when total irregularity of rhythm occurred and when a rate could no longer be measured. If defibrillation was required a DC shock was given.

[2] = system: guinea pig papillary muscles; assay: Electrophysiological studies: transmembrane action potentials of isolated papillary muscle; assay type: cell-based, Guinea pigs; conditions: for resting membrane potential, action potential amplitude, Vmax: even at the highest concentrations
Method: Guinea pigs (300-350 g) were anesthetized by intravenous injection of sodium pentobarbital (60 mg/kg). After thoracotomy the heart was rapidly excised and placed in oxygenated Tyrode solution. Papillary muscles were removed from the right ventricle. Preparations were then fixed to the silastic base of a 5 ml organ bath and superfused with oxygenated Tyrode solution maintained at 37 ± 1 °C.
The solution was equilibrated with a gas mixture of 95% O2 - 5% CO2.
After a stabilisation period (at least 1 h), transmembrane action potentials were recorded with conventional microelectrodes (10 MOhm) connected to a high input impedance amplifier (BIOLOGIC VF 180). External stimuli were delivered to the preparation with bipolar platinum electrodes placed at one end of the muscle. The pulse duration was 1 ms and the amplitude was twice threshold. The basic cycle length was 1000 ms (PULSAR 6i stimulator). The signals were monitored on a storage oscilloscope (GOULD 1602) and simultaneously recorded on a digital tape recorder (BIOLOGIC DTR 1200) for further analysis.
Measurements were made of resting membrane potential (RMP), action potential amplitude (APA) and action potential durations at 30, 50 and 90% repolarization (APD30, APD50 and APD90 respectively). Recordings were made after 30 min of equilibration for each concentration. Only recordings in which the same impalement was maintained throughout the entire experiment were used for analysis.

anesthetized dog = assay: Hemodynamic and electrocardiographic parameters in anesthetized dogs (before and during LCX occlusion/reperfusion); assay type: in vivo; conditions: for QTc: Bazett
Method: Surgical preparation. Dogs were anesthetized using 30 mg/kg i.v. sodium pentobarbital. […] A catheter was inserted into the right femoral artery to measure the systemic arterial pressure (Statham P23 ID, GOULD). A 5F Millar microtip catheter pressure transducer was inserted into the left carotid artery and advanced into the left ventricular lumen to measure the left ventricular pressure (LVP) and its first positive derivative dP/dt. Peripheral venous and arterial catheters were placed for drug administration and blood samples collection, respectively. Electrocardiographic variables were measured via a standard lead II ECG. For determination of the Q-T interval of ECG a CV5RL precordial lead of ECG was measured as previously described (Koerner et al.,J.,Cardiovascular Pharmacol. […] After a left thoracotomy through the fifth intercostal space, the heart was suspended in a pericardial cradle. The left circumflex coronary artery (LCX) was isolated close to its origin and a silk suture was placed around it for later occlusion. Experimental time course. After placement of the silk strand the animal was allowed to stabilize for at least 10 minutes. Arterial blood gases were determined (ABL500, Radiometer), and ventilation was adjusted to maintain these parameters within the normal range. Then, intravenous administration of the drug was performed in 10 minutes. After the drug administration, hemodynamic and ECG variables were again measured and the LCX was occluded for 45 minutes by placing a microclamp. Reperfusion performed by removing the clamp was continued for 5 hours. Arterial blood pressure and ECG were recorded continuously on a Gould polyrecorder. Signals were digitised by an A/D convertor and analysed on an IBM computer using an interactive software (Clodia, Clod sarl) and then transfered to a VAX 4000-200 computer (Digital Equipment Corporation, Maynard, MA) for further analysis. Heart rate was calculated from the ECG. […] QTc = (QT interval in msec) / (R-R interval in sec)^½.

[3] = preischemic period, Compound I 0.3 and 1.0 mg/kg, d-sotalol 3.0 and 10.0 mg/kg

COc1ccc(CCN(C)CCCN(C(=O)c2ccc([N+](=O)[O-])cc2)c2ccc(OC)c(OC)c2)cc1OC [Compound I, (N-[3,4-dimethoxy-phenyl]-N-3-[N'-2-(3,4-dimethoxyphenyl)-ethyl-N'-methylamino]propyl)-N'-4-nitrobenzamide]
incidence of ventricular fibrillation ([1]; 0.3 mg/kg, 45 min ischemia and first 60 min of reperfusion, control dogs 66.7 %): 33.3%
incidence of ventricular fibrillation ([1]; 1.0 mg/kg, 45 min ischemia and first 60 min of reperfusion, control dogs 66.7 %, p <0.05): 14.3%
ventricular fibrillation during ischemia ([1]; 0.3 or 1.0 mg/kg, ischemic period): none of the dogs treated with Compound I experienced ventricular fibrillation during ischemia
Overshoot ([2]; 0.3 µM): 36 ± 1 mV
Vmax ([2]; 0.3 µM): 168 ± 14 V/sec
APD50 ([2]; 0.3 µM, action potential duration at 50 % of the repolarization): 162 ± 6 ms
RMP ([2]; 0.3 µM, resting membrane potential): -92 ± 1 mV
APD50 ([2]; 1 µM): 170 ± 5 ms
Overshoot ([2]; 1 µM): 35 ± 1 mV
RMP ([2]; 1 µM): -92 ± 1 mV
Vmax ([2]; 1 µM): 168 ± 14 V/sec
APD50 ([2]; 3 µM): 163 ± 5 ms
Overshoot ([2]; 3 µM): 34 ± 1 mV
RMP ([2]; 3 µM): -92 ± 1 mV
Vmax ([2]; 3 µM): 169 ± 14 V/sec
APD50 ([2]; 10 µM): 139 ± 6 ms
Overshoot ([2]; 10 µM): 33 ± 2 mV
RMP ([2]; 10 µM): -91 ± 1 mV
Vmax ([2]; 10 µM): 167 ± 15 V/sec
resting membrane potential, action potential amplitude, Vmax [2]: did not change
action potential duration ([2]; prolongation at 0.3 and 1 µM, no further increase at 3 µM, reduced at 10 µM): biphasic effect
PR (anesthetized dog; dog, in vivo): 112 ± 4 ms and 120 ± 6 ms and 115 ± 7 ms and 116 ± 3 ms and 113 ± 3 ms
heart rate (anesthetized dog; dog, in vivo): reduced heart rate in a dose-dependent manner
mean arterial and left ventricular pressure (anesthetized dog; dog, in vivo): only minimal changes
pressure rate product (anesthetized dog; dog, in vivo): reduced the pressure rate product

CC(C)NCC(O)c1ccc(NS(C)(=O)=O)cc1 (stereo not drawn) [d-Sotalol]
ventricular fibrillation during the ischemic period ([1]; 3.0 mg/kg): one dog
incidence of ventricular fibrillation ([1]; 10.0 mg/kg (only the high dose), ischemia and reperfusion): reduced the incidence of ventricular fibrillation
APA ([2]; 3 µM): 127 ± 1 mV
APD30 ([2]; 3 µM): 93 ± 5 ms
APD50 ([2]; 3 µM): 136 ± 5 ms
APD90 ([2]; 3 µM): 171 ± 5 ms
Overshoot ([2]; 3 µM): 33 ± 1 mV
RMP ([2]; 3 µM): -95 ± 1 mV
Vmax ([2]; 3 µM): 199 ± 30 V/sec
APA ([2]; 10 µM): 128 ± 1 mV
APD30 ([2]; 10 µM): 101 ± 8 ms
APD50 ([2]; 10 µM): 151 ± 7 ms
APD90 ([2]; 10 µM): 190 ± 7 ms
Overshoot ([2]; 10 µM): 34 ± 1 mV
RMP ([2]; 10 µM): -94 ± 1 mV
Vmax ([2]; 10 µM): 209 ± 32 V/sec
APA ([2]; 30 µM): 127 ± 1 mV
APD30 ([2]; 30 µM): 104 ± 7 ms
APD50 ([2]; 30 µM): 160 ± 6 ms
APD90 ([2]; 30 µM): 204 ± 6 ms
Overshoot ([2]; 30 µM): 33 ± 1 mV
RMP ([2]; 30 µM): -94 ± 1 mV
Vmax ([2]; 30 µM): 209 ± 32 V/sec
APA ([2]; 100 µM): 127 ± 1 mV
APD30 ([2]; 100 µM): 102 ± 7 ms
APD50 ([2]; 100 µM): 165 ± 6 ms
APD90 ([2]; 100 µM): 214 ± 7 ms
Overshoot ([2]; 100 µM): 32 ± 1 mV
RMP ([2]; 100 µM): -94 ± 1 mV
Vmax ([2]; 100 µM): 207 ± 34 V/sec
action potential duration ([2]; 3 to 100 µM): dose-dependent increase in action potential duration
resting membrane potential, action potential amplitude, Vmax [2]: did not change
PR (anesthetized dog; 3.0 mg/kg i.v., After drug, before drug 105 ± 5): 118 ± 7 ms
QT (anesthetized dog; 3.0 mg/kg i.v., After drug, before drug 238 ± 11): 269 ± 12 ms
QTc (anesthetized dog; 3.0 mg/kg i.v., After drug, before drug 384 ± 8): 397 ± 11 msec/sec^½
PR (anesthetized dog; 3.0 mg/kg i.v., Ischemia (45 min), before drug 105 ± 5): 111 ± 7 ms
QT (anesthetized dog; 3.0 mg/kg i.v., Ischemia (45 min), before drug 238 ± 11): 264 ± 7 ms
QTc (anesthetized dog; 3.0 mg/kg i.v., Ischemia (45 min), before drug 384 ± 8): 400 ± 8 msec/sec^½
PR (anesthetized dog; 3.0 mg/kg i.v., reperfusion (60 min), before drug 105 ± 5): 112 ± 5 ms
QT (anesthetized dog; 3.0 mg/kg i.v., reperfusion (60 min), before drug 238 ± 11): 251 ± 11 ms
QTc (anesthetized dog; 3.0 mg/kg i.v., reperfusion (60 min), before drug 384 ± 8): 392 ± 16 msec/sec^½
PR (anesthetized dog; 10.0 mg/kg i.v., After drug, before drug 109 ± 5): 115 ± 5 ms
QT (anesthetized dog; 10.0 mg/kg i.v., After drug, before drug 251 ± 11): 337 ± 19 ms
QTc (anesthetized dog; 10.0 mg/kg i.v., After drug, before drug 386 ± 3): 440 ± 14 msec/sec^½
PR (anesthetized dog; 10.0 mg/kg i.v., Ischemia (45 min), before drug 109 ± 5): 113 ± 5 ms
QT (anesthetized dog; 10.0 mg/kg i.v., Ischemia (45 min), before drug 251 ± 11): 312 ± 14 ms
QTc (anesthetized dog; 10.0 mg/kg i.v., Ischemia (45 min), before drug 386 ± 3): 423 ± 10 msec/sec^½
PR (anesthetized dog; 10.0 mg/kg i.v., reperfusion (60 min), before drug 109 ± 5): 113 ± 6 ms
QT (anesthetized dog; 10.0 mg/kg i.v., reperfusion (60 min), before drug 251 ± 11): 285 ± 11 ms
QTc (anesthetized dog; 10.0 mg/kg i.v., reperfusion (60 min), before drug 386 ± 3): 400 ± 8 msec/sec^½
heart rate (anesthetized dog; [3]): reduced heart rate in a dose-dependent manner
left ventricular dP/dtmax (anesthetized dog; [3]): reduction in the left ventricular dP/dtmax
mean arterial and left ventricular pressure (anesthetized dog; [3]): only minimal changes
pressure rate product (anesthetized dog; [3]): reduced the pressure rate product
